According to PMC9785397, “Exploiting Conserved Quorum Sensing Signals in Streptococcus mutans and Streptococcus pneumoniae” (Microorganisms, 2022):
Values after ≈ are worked out from the molar mass of the structure shown.

Legend:
S. oralis = assay: microbe, parasite or virus in culture; format: cell-based, Streptococcus oralis; settings: peptides 0–50 μM, 16 h, 37 °C, microaerophilic, A620 nm, three separate experiments
From the text: (§1) Streptococcus mutans Clarke (strain designation NCTC 10449), Pseudomonas aeruginosa (Schroeter) Migula (strain designation PAO1), Fusobacterium nucleatum, subspecies nucleatum (strain VPI 4355), and Porphyromonas gingivalis (strain 2561) were purchased from ATCC (LGC Standards Srl, Milan, Italy). Streptococcus mitis, Streptococcus oralis, and Streptococcus sanguinis were obtained from clinical isolates and characterized by morphological, biochemical, and molecular typing. S. mutans, S. mitis, S. oralis, and S. sanguinis were maintained in Brain Heart Infusion (BHI) broth or agar under microaerophilic conditions. P. aeruginosa was maintained in trypticase soy (TS) agar or broth. F. nucleatum was maintained in TS agar or broth with defibrinated sheep blood under anaerobic conditions. P. gingivalis was maintained in ATCC Medium 2722 supplemented with TS broth or agar under anaerobic conditions. Before the experiments, bacterial cultures were inoculated in fresh media (dilution 1:100) and grown for 16 h at 37 °C.
(§2) The antimicrobial activities of the tested peptides were assessed through the determination of the minimum inhibitory concentration (MIC) standardized by the Clinical and Laboratory Standards Institute. Bacterial inocula were diluted in 10 mL of MHB […]. The concentration of the bacteria was adjusted to 0.5 McFarland standard, and the bacteria were dispensed in 96-well microtiter plates (final bacterial concentration: 1 × 10^4 CFU/well). Peptides were dissolved in sterile water (stock concentration: 2 mM) and added at final concentrations ranging from 0 to 50 µM. Plates were incubated at 37 °C for 16 h. At the end of incubation, bacterial growth was recorded using a microplate reader (Varioskan Lux Reader; Thermo Fisher Scientific, Milan, Italy) by quantifying the adsorption at 620 nm. Cultures were then opportunely diluted and seeded on agar plates. Bacterial cultures inoculated with the highest final concentration of the vehicle (sterile water) or chlorhexidine hydrochloride salt (CHX, concentration range: 0.05 to 500 μg/mL; Merck, Milan, Italy) were included as controls in each test. Experiments were performed in triplicate.

S. sanguinis = assay: microbe, parasite or virus in culture; format: cell-based, Streptococcus sanguinis; settings: peptides 0–50 μM, 16 h, 37 °C, microaerophilic, A620 nm, three separate experiments
From the text: as §1, §2

[1] = test system: S. mutans bacteriocin production against P. gingivalis; assay: Bacteriocin overlay assay, S. mutans spotted on P. gingivalis; format: cell-based, Streptococcus mutans; settings: CSP1 20 μM, 16 h, anaerobic
Protocol: During the formation of complex biofilm such as dental plaque, the ability of S. mutans to compete with other commensal species determines the success of the cariogenesis process. S. mutans uses antibacterial peptides, namely, bacteriocins, to overcome and subvert the composition of dental microbiota. We investigated the production of bacteriocins using the overlay assay. Overnight cultures of S. mitis, S. oralis, S. sanguinis, P. aeruginosa, F. nucleatum, or P. gingivalis were diluted 1:100 in BHI or TS broth and incubated at 37 °C until they reached an OD620 of 0.3. Cultures were added with agar (BD Difco^TM Agar) at the final concentration of 1.5% w/v and transferred in plates. Overnight cultures of S. mutans were diluted 1:100 in BHI and added with peptides (20 μM) or the vehicle with or without CSP1. Culture media were supplemented with agar to reach the final concentration of 0.7% w/v. The solutions were spotted on the surface of agar plates prepared as described above. […]
(§3) Spots (10 for each experimental group) were acquired and analyzed using NIH Image J software (version 1.53t August 2022, https://imagej.nih.gov/ij/index.html; accessed on 7 September 2022). The appearance of a clear area on the plate (bacterial growth inhibition) was evaluated as indicative of bacteriocin activity. The diameters of the area were measured in a blinded fashion.

vicK gene = assay: qRT-PCR, vicK gene expression in biofilm; format: cell-based, Streptococcus mutans; settings: CSP1 20 μM vs vehicle, 16 h, qPCR
Protocol: (§4) S. mutans was cultured in BHI supplemented with peptides or the vehicle. Cultures were centrifuged, and total RNA was isolated and purified from the bacterial pellets using the GRS Total RNA Kit—Bacteria (GK16.0100; GRISP Research Solution, Porto, Portugal), following the manufacturer’s instructions. Purified RNA was subjected to DNase I treatment to remove contaminating DNA. The RNA yield and purity were assessed by measuring the absorbance, and only samples with a ratio of 260/280 nm in the 1.8–2 range were used. cDNA was generated using the cDNA RT kit with an RNAse inhibitor (Applied Biosystems; Monza, Milan). Quantitative PCR (qRT-PCR) was performed using SYBR green mixture (iScript One Step RT-PCR kit; Bio-Rad, Segrate, Milan) to determine the transcript levels of genes using the oligonucleotides listed in Table 3. The gyrA gene served as the housekeeping gene.

comD gene = assay: qRT-PCR, comD gene expression; format: cell-based, Streptococcus mutans; settings: CSP1 20 μM, planktonic, 8 h, qPCR
Protocol: as §4

[2] = test system: S. mutans bacteriocin production against S. sanguinis; assay: Bacteriocin overlay assay, S. mutans spotted on S. sanguinis; format: cell-based, Streptococcus mutans; settings: CSP1 20 μM alone vs vehicle, 16 h, 37 °C, microaerophilic
Protocol: During the formation of complex biofilm such as dental plaque, the ability of S. mutans to compete with other commensal species determines the success of the cariogenesis process. S. mutans uses antibacterial peptides, namely, bacteriocins, to overcome and subvert the composition of dental microbiota. We investigated the production of bacteriocins using the overlay assay. Overnight cultures of S. mitis, S. oralis, S. sanguinis, P. aeruginosa, F. nucleatum, or P. gingivalis were diluted 1:100 in BHI or TS broth and incubated at 37 °C until they reached an OD620 of 0.3. Cultures were added with agar (BD Difco^TM Agar) at the final concentration of 1.5% w/v and transferred in plates. Overnight cultures of S. mutans were diluted 1:100 in BHI and added with peptides (20 μM) or the vehicle with or without CSP1. Culture media were supplemented with agar to reach the final concentration of 0.7% w/v. The solutions were spotted on the surface of agar plates prepared as described above. The plates were kept on the benchtop for 30 min, allowing the agar containing S. mutans to solidify, and then incubated at 37 °C for 16 h under microaerophilic or anaerobic conditions, as required.
as §3

## CC[C@H](C)[C@H](NC(=O)[C@H](Cc1ccccc1)NC(=O)[C@H](CC(=O)O)NC(=O)[C@H](CCCNC(=N)N)NC(=O)[C@H](Cc1ccccc1)NC(=O)[C@H](Cc1ccccc1)NC(=O)[C@H](CCCCN)NC(=O)[C@H](CO)NC(=O)[C@H](CC(C)C)NC(=O)[C@H](CCCNC(=N)N)NC(=O)[C@H](CCSC)NC(=O)[C@@H](N)CCC(=O)O)C(=O)N[C@@H](CC(C)C)C(=O)N[C@@H](CCC(N)=O)C(=O)N[C@@H](CCCNC(=N)N)C(=O)N[C@@H](CCCCN)C(=O)N[C@@H](CCCCN)C(=O)O [CSP1]
S. oralis
  Minimum inhibitory concentration (MIC), S. oralis: 25 µM (≈ 56.1 µg/mL)
S. sanguinis
  Minimum inhibitory concentration (MIC), S. sanguinis: 21 µM (≈ 47.1 µg/mL)
[1]
  Growth inhibition of P. gingivalis by S. mutans stimulated with peptide: no effects
vicK gene
  Expression of vicK in S. mutans biofilm: significantly increased
comD gene
  Expression of comD in S. mutans: increased the expression
[2]
  Growth inhibition of co-cultured S. sanguinis by S. mutans stimulated with peptide (diameter of clear area): significantly inhibited the growth
